According to US11399542B2, “Pesticidally active heterocyclic derivatives with sulfur containing substituents” (SYNGENTA PARTICIPATIONS AG, priority 2017, dated 2022):

Experiments:
[1] = tested on: Myzus persicae (Green Peach Aphid); assay: Example B5: Activity against Myzus persicae, sprayed sunflower leaf discs; assay type: in vivo; details: foliar, 144 h, application rate 200 ppm, mixed-age aphids on sunflower leaf discs, 6 days after infestation
Method: (§1) Sunflower leaf discs were placed on agar in a 24-well microtiter plate and sprayed with aqueous test solutions prepared from 10′000 ppm DMSO stock solutions. After drying, the leaf discs were infested with an aphid population of mixed ages. The samples were assessed for mortality 6 days after infestation.

[2] = tested on: Myzus persicae (Green Peach Aphid); assay: Example B6: Activity against Myzus persicae, systemic via roots of pea seedlings; assay type: in vivo; details: 144 h, test rate 24 ppm, pea seedling roots in test solution, 6 days
Method: Roots of pea seedlings infested with an aphid population of mixed ages were placed directly in the aqueous test solutions prepared from 10′000 DMSO stock solutions. The samples were assessed for mortality 6 days after placing seedlings in test solutions.

[3] = tested on: Frankliniella occidentalis (Western Flower Thrips); assay: Example B8: Activity against Frankliniella occidentalis, sprayed sunflower leaf discs; assay type: in vivo; details: foliar, 168 h, application rate 200 ppm, mixed ages on sunflower leaf discs, 7 days after infestation
Method: as §1, with “in” for “in a”, “plates” for “plate”, “[…]” for “10′000 ppm”, “drying” for “drying,”, “a Frankliniella” for “an aphid”, “7” for “6”

[4] = tested on: Euschistus heros (Neotropical Brown Stink Bug); assay: Example B9: Activity against Euschistus heros, sprayed soybean leaf; assay type: in vivo; details: 120 h, application rate 200 ppm, N2 nymphs on soybean leaf, 5 days after infestation, read-out: effect in at least one of the two categories (mortality or growth inhibition)
Method: Soybean leaf on agar in 24-well microtiter plates were sprayed with aqueous test solutions prepared from 10′000 ppm DMSO stock solutions. After drying the leaf were infested with N2 nymphs. The samples were assessed for mortality and growth inhibition in comparison to untreated samples 5 days after infestation.

[5] = tested on: Spodoptera littoralis (Egyptian Cotton Leaf Worm); assay: Example B1: Activity against Spodoptera littoralis, sprayed cotton leaf discs; assay type: in vivo; details: foliar, 72 h, application rate 200 ppm, L1 larvae on cotton leaf discs, 3 days after infestation, read-out: control (at least one of mortality, anti-feedant effect, growth inhibition)
Method: Cotton leaf discs were placed onto agar in 24-well microtiter plates and sprayed with aqueous test solutions prepared from 10′000 ppm DMSO stock solutions. After drying the leaf discs were infested with five L1 larvae. The samples were assessed for mortality, anti-feeding effect, and growth inhibition in comparison to untreated samples 3 days after infestation. Control of Spodoptera littoralis by a test sample is given when at least one of the categories mortality, anti-feedant effect, and growth inhibition is higher than the untreated sample.

[6] = tested on: Diabrotica balteata (Corn Root Worm); assay: Example B4: Activity against Diabrotica balteata, sprayed maize sprouts; assay type: in vivo; details: 96 h, application rate 200 ppm, L2 larvae on maize sprouts, 4 days after infestation, read-out: effect in at least one of the two categories (mortality or growth inhibition)
Method: Maize sprouts placed onto an agar layer in 24-well microtiter plates were treated with aqueous test solutions prepared from 10′000 ppm DMSO stock solutions by spraying. After drying, the plates were infested with L2 larvae (6 to 10 per well). The samples were assessed for mortality and growth inhibition in comparison to untreated samples 4 days after infestation.

[7] = tested on: Bemisia tabaci (Cotton White Fly); assay: Example B7: Activity against Bemisia tabaci, sprayed cotton leaf discs; assay type: in vivo; details: foliar, 144 h, application rate 200 ppm, adult white flies on cotton leaf discs, 6 days after incubation
Method: Cotton leaf discs were placed on agar in 24-well microtiter plates and sprayed with aqueous test solutions prepared from 10′000 ppm DMSO stock solutions. After drying the leaf discs were infested with adult white flies. The samples were checked for mortality 6 days after incubation.

[8] = tested on: Plutella xylostella (Diamond Back Moth); assay: Example B12: Activity against Plutella xylostella, artificial diet, eggs; assay type: in vivo; details: 192 h, application rate 200 ppm, eggs on artificial diet, 8 days after infestation, read-out: effect in at least one of the two categories (mortality or growth inhibition)
Method: 24-well microtiter plates with artificial diet were treated with aqueous test solutions prepared from 10′000 ppm DMSO stock solutions by pipetting. After drying, Plutella eggs were pipetted through a plastic stencil onto a gel blotting paper and the plate was closed with it. The samples were assessed for mortality and growth inhibition in comparison to untreated samples 8 days after infestation.

[9] = tested on: Plutella xylostella (Diamond Back Moth); assay: Example B3: Activity against Plutella xylostella, artificial diet, L2 larvae; assay type: in vivo; details: 120 h, application rate 200 ppm, L2 larvae on artificial diet, 5 days after infestation, read-out: effect in at least one of the two categories (mortality or growth inhibition)
Method: 24-well microtiter plates with artificial diet were treated with aqueous test solutions prepared from 10′000 ppm DMSO stock solutions by pipetting. After drying, the plates were infested with L2 larvae (10 to 15 per well). The samples were assessed for mortality and growth inhibition in comparison to untreated samples 5 days after infestation.

Row | SMILES | melting point [°C] | mortality at 200 ppm [1] [%] | mortality at 24 ppm [2] [%] | mortality at 200 ppm [3] [%] | percent effect (mortality or growth inhibition) at 200 ppm [4] [%] | percent control (mortality, anti-feedant effect or growth inhibition) at 200 ppm [5] [%] | percent effect (mortality or growth inhibition) at 200 ppm [6] [%] | mortality at 200 ppm [7] [%] | percent effect (mortality or growth inhibition) at 200 ppm [8] [%] | percent effect (mortality or growth inhibition) at 200 ppm [9] [%]
1 | CCSc1cc2c(cc1-c1nc3cc(C(F)(F)F)cnc3n1C)n(C)c(=O)n2CC | 186 to 188 |  |  |  |  |  |  |  |  | 
2 | CCS(=O)(=O)c1cc2c(cc1-c1nc3cc(C(F)(F)F)cnc3n1C)n(C#N)c(=O)n2C [Compound P14, 5-ethylsulfonyl-3-methyl-6-[3-methyl-6-(trifluoromethyl)imidazo[4,5-b]pyridin-2-yl]-2-oxo-benzimidazole-1-carbonitrile] |  | ≥ 80 | ≥ 80 | ≥ 80 | ≥ 80 |  |  |  |  | 
3 | CCSc1cc2c(cc1-c1nc3cc(C(F)(F)F)cnc3n1C)n(C#N)c(=O)n2C | 255 to 257 |  |  |  |  |  |  |  |  | 
4 | CCS(=O)(=O)c1cc2c(nc1-c1nc3cc(SC(F)(F)F)ccc3n1C)n(C)c(=O)n2C [Compound P38, 6-ethylsulfonyl-1,3-dimethyl-5-[1-methyl-5-(trifluoromethyl-sulfanyl)benzimidazol-2-yl]imidazo[4,5-b]pyridin-2-one] |  | ≥ 80 | ≥ 80 | ≥ 80 |  | ≥ 80 | ≥ 80 | ≥ 80 | ≥ 80 | 
5 | CCn1c(=O)n(C)c2cc(-c3nc4cc(C(F)(F)F)ncc4n3C)c(S(=O)(=O)CC)cc21 [Compound P4, 1-ethyl-6-ethylsulfonyl-3-methyl-5-[3-methyl-6-(trifluoromethyl)imidazo[4,5-c]pyridin-2-yl]benzimidazol-2-one] |  | ≥ 80 | ≥ 80 | ≥ 80 | ≥ 80 |  | ≥ 80 |  |  | ≥ 80
6 | CCS(=O)(=O)c1cc2c(cc1-c1nc3cc(C(F)(F)F)cnc3n1C)n(COC)c(=O)n2C [Compound P18, 5-ethylsulfonyl-1-(methoxy-methyl)-3-methyl-6-[3-methyl-6-(trifluoromethyl)imidazo[4,5-b]pyridine-2-yl]benzimidazol-2-one] |  | ≥ 80 | ≥ 80 |  | ≥ 80 |  | ≥ 80 |  |  | ≥ 80
7 | CCS(=O)(=O)c1cc2c(cc1-c1nc3cc(C(F)(F)F)cnc3n1C)n(CS(C)(=O)=O)c(=O)n2C [Compound P16, 6-ethylsulfonyl-1-methyl-3-(methylsulfonylmethyl)-5-[3-methyl-6-(trifluoromethyl)imidazo[4,5-b]pyridine-2-yl]benzimidazol-2-one] |  | ≥ 80 | ≥ 80 | ≥ 80 | ≥ 80 |  |  |  |  | 
8 | CCSc1cc2c(cc1-c1nc3cc(C(F)(F)F)ccc3o1)n(C)c(=O)n2C | 205 to 207 |  |  |  |  |  |  |  |  | 
9 | CCS(=O)(=O)c1cc2c(nc1-c1nc3cc([S+]([O-])C(F)(F)F)ccc3o1)n(C)c(=O)n2C (stereo not drawn) [Compound P45, 6-ethylsulfonyl-1,3-dimethyl-5-[5-(trifluoromethylsulfinyl)-1,3-benzoxazol-2-yl]imidazo[4,5-b]pyridin-2-one] |  |  | ≥ 80 | ≥ 80 | ≥ 80 | ≥ 80 | ≥ 80 |  | ≥ 80 | 
10 | CCSc1cc2c(cc1-c1nc3cc(SC(F)(F)F)ccc3o1)n(C)c(=O)n2C | 206 to 208 |  |  |  |  |  |  |  |  | 
11 | CCSc1cc2c(cc1-c1nc3cc(C(F)(F)F)cnc3n1C)n(CC)c(=O)n2C [Compound P7, 1-ethyl-5-ethylsulfanyl-3-methyl-6-[3-methyl-6-(trifluoromethyl)imidazo[4,5-b]pyridin-2-yl]benzimidazol-2-one] |  |  |  |  | ≥ 80 |  | ≥ 80 |  |  | ≥ 80
12 | CCS(=O)(=O)c1cc2c(cc1-c1nc3cc(C(F)(F)F)ncc3n1C)n(C)c(=O)n2C [Compound P9, 5-ethylsulfonyl-1,3-dimethyl-6-[3-methyl-6-(trifluoromethyl)imidazo[4,5-c]pyridin-2-yl]benzimidazol-2-one] |  | ≥ 80 | ≥ 80 | ≥ 80 | ≥ 80 |  |  |  |  | 
13 | CCS(=O)(=O)c1cc2c(nc1-c1nc3cc(C(F)(F)F)ncc3n1C)n(C)c(=O)n2C [Compound P8, 6-ethylsulfonyl-1,3-dimethyl-5-[3-methyl-6-(trifluoromethyl)imidazo[4,5-c]pyridin-2-yl]imidazo[4,5-b]pyridin-2-one] |  | ≥ 80 | ≥ 80 | ≥ 80 | ≥ 80 |  |  | ≥ 80 |  | ≥ 80
14 | CCS(=O)(=O)c1cc2c(cc1-c1nc3cc(SC(F)(F)F)ccc3n1C)n(C)c(=O)n2C [Compound P36, 5-ethylsulfonyl-1,3-dimethyl-6-[1-methyl-5-(trifluoromethyl-sulfanyl)benzimidazol-2-yl]benzimidazol-2-one] |  | ≥ 80 | ≥ 80 |  | ≥ 80 |  | ≥ 80 | ≥ 80 | ≥ 80 | 
15 | CCS(=O)(=O)c1cc2c(nc1-c1nc3cc(S(=O)(=O)C(F)(F)F)ccc3n1C)n(C)c(=O)n2C [Compound P39, 6-ethylsulfonyl-1,3-dimethyl-5-[1-methyl-5-(trifluoromethyl-sulfonyl)benzimidazol-2-yl]imidazo[4,5-b]pyridine-2-one] |  | ≥ 80 | ≥ 80 |  | ≥ 80 | ≥ 80 |  | ≥ 80 | ≥ 80 | 
16 | CCS(=O)(=O)c1cc2c(nc1-c1nc3cc(C(F)(F)F)cnc3n1C)n(C)c(=O)n2C [Compound P22, 6-ethylsulfonyl-1,3-dimethyl-5-[3-methyl-6-(trifluoromethyl)imidazo[4,5-b]pyridine-2-yl]imidazo[4,5-b]pyridine-2-one] |  | ≥ 80 | ≥ 80 | ≥ 80 | ≥ 80 | ≥ 80 | ≥ 80 | ≥ 80 |  | ≥ 80
